From US10112906B2, “1-aryl-3-alkylpyrazole insecticides” (E. I. DU PONT DE NEMOURS AND COMPANY, priority 2013, dated 2018)

Columns and labels:
Assay type in all cases: in vivo
[1] = test system: diamondback moth (Plutella xylostella (L.)); assay: Test A: control of diamondback moth, foliar spray on mustard plant; conditions: neonate larvae, assessed after 6 days
Description: (§1) Test compounds were formulated using a solution containing 10% acetone, 90% water and 300 ppm X-77® Spreader Lo-Foam Formula non-ionic surfactant containing alkylarylpolyoxyethylene, free fatty acids, glycols and isopropanol (Loveland Industries, Inc. Greeley, Colo., USA). The formulated compounds were applied in 1 mL of liquid through a SUJ2 atomizer nozzle with ⅛ JJ custom body (Spraying Systems Co. Wheaton, Ill., USA) positioned 1.27 cm (0.5 inches) above the top of each test unit. Test compounds were sprayed at the rates indicated, and each test was replicated three times.
For evaluating control of diamondback moth (Plutella xylostella (L.)) the test unit consisted of a small open container with a 12-14-day-old mustard plant inside. This was pre-infested with ˜50 neonate larvae that were dispensed into the test unit via corn cob grits using an inoculator. The larvae moved onto the test plant after being dispensed into the test unit.
Test compounds were formulated and sprayed at 250 and/or 50 ppm. After spraying of the formulated test compound, each test unit was allowed to dry for 1 hour and then a black, screened cap was placed on top. The test units were held for 6 days in a growth chamber at 25° C. and 70% relative humidity. Plant feeding damage was then visually assessed based on foliage consumed, and larvae were assessed for mortality.

[2] = test system: fall armyworm (Spodoptera frugiperda (J. E. Smith)); assay: Test B: control of fall armyworm, foliar spray on corn (maize) plant; conditions: 1-day-old larvae, assessed after 6 days
Description: as §1
For evaluating control of fall armyworm (Spodoptera frugiperda (J. E. Smith)) the test unit consisted of a small open container with a 4-5-day-old corn (maize) plant inside. This was pre-infested with 10-15 1-day-old larvae on a piece of insect diet.
Test compounds were formulated and sprayed at 250 and/or 50 ppm. After spraying of the formulated test compound, the test units were maintained in a growth chamber for 6 days at 25° C. and 70% relative humidity. Plant feeding damage was then visually assessed based on foliage consumed, and larvae were assessed for mortality.

[3] = test system: potato leafhopper (Empoasca fabae (Harris)); assay: Test D: control of potato leafhopper through contact and/or systemic means; conditions: 144 h, sprayed at 250 ppm, Soleil bean plant, adults, assessed after 6 days
Description: as §1
For evaluating control of potato leafhopper (Empoasca fabae (Harris)) through contact and/or systemic means, the test unit consisted of a small open container with a 5-6-day-old Soleil bean plant (primary leaves emerged) inside. White sand was added to the top of the soil, and one of the primary leaves was excised prior to application of the test compound.
Test compounds were formulated and sprayed at 250 and/or 50 ppm. After spraying of the formulated test compound, the test units were allowed to dry for 1 hour before they were post-infested with 5 potato leafhoppers (18-to-21-day-old adults). A black, screened cap was placed on the top of the test unit, and the test units were held for 6 days in a growth chamber at 20° C. and 70% relative humidity. Each test unit was then visually assessed for insect mortality.

For Cc1nn(-c2ccc(Cl)c(Cl)c2)cc1CN1CCC(NC(=O)C2CC2)C1 (stereo not shown) [Compound 22], the “control efficacy (40% or less feeding damage and/or 100% mortality)” value ([1]; sprayed at 50 ppm) was “very good to excellent levels of control efficacy” and the “control efficacy (40% or less feeding damage and/or 100% mortality)” value ([1]; sprayed at 250 ppm) was “very good to excellent levels of control efficacy”.

For “2-[3-cyclohexyl-4-[[4-(trifluoromethyl)-1-piperidinyl]methyl]-1H-pyrazol-1-yl]-4-(trifluoromethyl)pyridine [Compound 23]”, the “control efficacy (40% or less feeding damage and/or 100% mortality)” value ([1]; sprayed at 50 ppm) was “very good to excellent levels of control efficacy”, the “control efficacy (40% or less feeding damage and/or 100% mortality)” value ([1]; sprayed at 250 ppm) was “very good to excellent levels of control efficacy” and the “control efficacy (40% or less feeding damage and/or 100% mortality)” value ([2]; sprayed at 50 ppm) was “very good to excellent levels of control efficacy”. For the same compound, the “control efficacy (40% or less feeding damage and/or 100% mortality)” value ([2]; sprayed at 250 ppm) was “very good to excellent levels of control efficacy”.

For N#CC1CCN(Cc2cn(-c3ccc(Cl)c(Cl)c3)nc2Cc2ccc(F)cc2)CC1 [Compound 2], the “control efficacy (40% or less feeding damage and/or 100% mortality)” value ([1]; sprayed at 50 ppm) was “very good to excellent levels of control efficacy”.

With C[Si](C)(C)C#Cc1nn(-c2ccc(Cl)c(Cl)c2)cc1CN1CCC(C#N)CC1 [Compound 29] the “control efficacy (40% or less feeding damage and/or 100% mortality)” value ([2]; sprayed at 50 ppm) was “very good to excellent levels of control efficacy”.

In the case of N#CC1CCN(Cc2cn(-c3cc(C(F)(F)F)ccn3)nc2C2CC2)CC1 [Compound 35], the “control efficacy (40% or less feeding damage and/or 100% mortality)” value ([1]; sprayed at 50 ppm) is reported as “very good to excellent levels of control efficacy”, the “control efficacy (40% or less feeding damage and/or 100% mortality)” value ([1]; sprayed at 250 ppm) is reported as “very good to excellent levels of control efficacy” and the “control efficacy (40% or less feeding damage and/or 100% mortality)” value ([2]; sprayed at 50 ppm) is reported as “very good to excellent levels of control efficacy”. For the same compound, the “control efficacy (40% or less feeding damage and/or 100% mortality)” value ([2]; sprayed at 250 ppm) was “very good to excellent levels of control efficacy”.

For Cc1nn(-c2ccc(Cl)c(Cl)c2)cc1CN1CCC(C#N)CC1 [Compound 21], the “control efficacy (40% or less feeding damage and/or 100% mortality)” value ([1]; sprayed at 50 ppm) was “very good to excellent levels of control efficacy” and the “control efficacy (40% or less feeding damage and/or 100% mortality)” value ([1]; sprayed at 250 ppm) was “very good to excellent levels of control efficacy”.

For C#Cc1nn(-c2ccc(Cl)c(Cl)c2)cc1CN1CCC(C#N)CC1 [Compound 31], the “control efficacy (40% or less feeding damage and/or 100% mortality)” value ([1]; sprayed at 50 ppm) was “very good to excellent levels of control efficacy”.

With N#CC1CCN(Cc2cn(-c3ccc(Cl)c(Cl)c3)nc2Cc2ccccc2F)CC1 [Compound 1] the “control efficacy (40% or less feeding damage and/or 100% mortality)” value ([1]; sprayed at 50 ppm) was “very good to excellent levels of control efficacy”.

N#CC1CCN(Cc2cn(-c3ccc(Cl)c(Cl)c3)nc2C#Cc2ccccc2)CC1 [Compound 32] was tested, and the “control efficacy (40% or less feeding damage and/or 100% mortality)” value ([1]; sprayed at 50 ppm) was “very good to excellent levels of control efficacy”.

With CCc1nn(-c2ccc(Cl)c(Cl)c2)cc1CN1CCC(C#N)CC1 [Compound 14] the “control efficacy (40% or less feeding damage and/or 100% mortality)” value ([1]; sprayed at 50 ppm) was “very good to excellent levels of control efficacy”.

FC(F)(F)C1CCN(Cc2cn(-c3cc(Cl)ccn3)nc2C2CCCC2)CC1 [Compound 37] was tested, and the “control efficacy (40% or less feeding damage and/or 100% mortality)” value ([1]; sprayed at 50 ppm) was “very good to excellent levels of control efficacy”, the “control efficacy (40% or less feeding damage and/or 100% mortality)” value ([1]; sprayed at 250 ppm) was “very good to excellent levels of control efficacy” and the “control efficacy (40% or less feeding damage and/or 100% mortality)” value ([2]; sprayed at 50 ppm) was “very good to excellent levels of control efficacy”. The “control efficacy (40% or less feeding damage and/or 100% mortality)” value ([2]; sprayed at 250 ppm) was “very good to excellent levels of control efficacy”.

N#CC1CCN(Cc2cn(-c3ccc(Cl)c(Cl)c3)nc2C2CC2)CC1 [Compound 12] was tested, and the “control efficacy (40% or less feeding damage and/or 100% mortality)” value ([1]; sprayed at 50 ppm) was “very good to excellent levels of control efficacy”.

CC(=O)N[C@H]1CCN(Cc2cn(-c3ccc(Cl)c(Cl)c3)nc2C2CC2)C1 [Compound 13] was tested, and the “control efficacy (40% or less feeding damage and/or 100% mortality)” value ([1]; sprayed at 50 ppm) was “very good to excellent levels of control efficacy”.

In the case of FC(F)(F)C1CCN(Cc2cn(-c3ccc(Cl)cn3)nc2C2CCCC2)CC1 [Compound 36], the “control efficacy (40% or less feeding damage and/or 100% mortality)” value ([1]; sprayed at 50 ppm) is reported as “very good to excellent levels of control efficacy”, the “control efficacy (40% or less feeding damage and/or 100% mortality)” value ([1]; sprayed at 250 ppm) is reported as “very good to excellent levels of control efficacy” and the “control efficacy (40% or less feeding damage and/or 100% mortality)” value ([2]; sprayed at 50 ppm) is reported as “very good to excellent levels of control efficacy”. The “control efficacy (40% or less feeding damage and/or 100% mortality)” value ([2]; sprayed at 250 ppm) was “very good to excellent levels of control efficacy”.

For N#CC1CCN(Cc2cn(-c3ccc(Cl)c(Cl)c3)nc2C2CCCCC2)CC1 [Compound 19], the “control efficacy (40% or less feeding damage and/or 100% mortality)” value ([2]; sprayed at 50 ppm) was “very good to excellent levels of control efficacy” and the “control efficacy (40% or less feeding damage and/or 100% mortality)” value ([2]; sprayed at 250 ppm) was “very good to excellent levels of control efficacy”.

With N#CC1CCN(Cc2cn(-c3ccc(Cl)cc3)nc2C=CCl)CC1 [Compound 9] the “control efficacy (40% or less feeding damage and/or 100% mortality)” value ([2]; sprayed at 50 ppm) was “very good to excellent levels of control efficacy” and the “control efficacy (40% or less feeding damage and/or 100% mortality)” value ([2]; sprayed at 250 ppm) was “very good to excellent levels of control efficacy”.

With O=C(NC1CCN(Cc2cn(-c3ccc(Cl)c(Cl)c3)nc2C2CCCCC2)C1)C1CC1 (stereo not shown) [Compound 20] the “control efficacy (40% or less feeding damage and/or 100% mortality)” value ([1]; sprayed at 250 ppm) was “very good to excellent levels of control efficacy” and the “control efficacy (40% or less feeding damage and/or 100% mortality)” value ([2]; sprayed at 250 ppm) was “very good to excellent levels of control efficacy”.

For C=Cc1nn(-c2ccc(Cl)c(Cl)c2)cc1CN1CCC(C#N)CC1 [Compound 15], the “control efficacy (40% or less feeding damage and/or 100% mortality)” value ([1]; sprayed at 50 ppm) was “very good to excellent levels of control efficacy”.

For N#CC1CCN(Cc2cn(-c3cc(Cl)ccn3)nc2C2CCCC2)CC1 [Compound 38, 1-[[1-(4-chloro-2-pyridinyl)-3-cyclopentyl-1H-pyrazol-4-yl]methyl]-4-piperidinecarbonitrile], the “control efficacy (40% or less feeding damage and/or 100% mortality)” value ([1]; sprayed at 50 ppm) was “very good to excellent levels of control efficacy”, the “control efficacy (40% or less feeding damage and/or 100% mortality)” value ([1]; sprayed at 250 ppm) was “very good to excellent levels of control efficacy” and the “control efficacy (40% or less feeding damage and/or 100% mortality)” value ([2]; sprayed at 50 ppm) was “very good to excellent levels of control efficacy”. The “control efficacy (40% or less feeding damage and/or 100% mortality)” value ([2]; sprayed at 250 ppm) was “very good to excellent levels of control efficacy” and the mortality at 250 ppm [3] was ≥ 80%.

In the case of FC(F)(F)C1CCN(Cc2cn(-c3ccc(Cl)c(Cl)c3)nc2C2CCC2)CC1 [Compound 28], the “control efficacy (40% or less feeding damage and/or 100% mortality)” value ([1]; sprayed at 50 ppm) is reported as “very good to excellent levels of control efficacy”, the “control efficacy (40% or less feeding damage and/or 100% mortality)” value ([1]; sprayed at 250 ppm) is reported as “very good to excellent levels of control efficacy” and the “control efficacy (40% or less feeding damage and/or 100% mortality)” value ([2]; sprayed at 50 ppm) is reported as “very good to excellent levels of control efficacy”. The “control efficacy (40% or less feeding damage and/or 100% mortality)” value ([2]; sprayed at 250 ppm) was “very good to excellent levels of control efficacy”.

With N#CC1CCN(Cc2cn(-c3cc(C(F)(F)F)ccn3)nc2C2CCC2)CC1 [Compound 46, 1-[[3-cyclobutyl-1-[4-(trifluoromethyl)-2-pyridinyl]-1H-pyrazol-4-yl]methyl]-4-piperidinecarbonitrile] the “control efficacy (40% or less feeding damage and/or 100% mortality)” value ([1]; sprayed at 50 ppm) was “very good to excellent levels of control efficacy”, the “control efficacy (40% or less feeding damage and/or 100% mortality)” value ([1]; sprayed at 250 ppm) was “very good to excellent levels of control efficacy” and the “control efficacy (40% or less feeding damage and/or 100% mortality)” value ([2]; sprayed at 50 ppm) was “very good to excellent levels of control efficacy”. The “control efficacy (40% or less feeding damage and/or 100% mortality)” value ([2]; sprayed at 250 ppm) was “very good to excellent levels of control efficacy” and the mortality at 250 ppm [3] was ≥ 80%.
